Each structure is given as a SMILES string.

The subject of the assay is gut microbiome. Description: RA patients on oral MTX: 16S-seq and metagenomic sequencing of stool at baseline and 1 month; clinical response. In kind it is in vivo, human. The settings on record: for number of gene families differentially abundant over time: metagenomic sequencing n=17. As to the method: Consecutive patients from the New York University Langone Medical Center's rheumatology clinics and offices were screened for the presence of RA based on ACR criteria (Aletaha et al., 2010). After informed consent was signed, each patient's medical history (according to chart review and interview/questionnaire), diet, and medications were determined. A screening musculoskeletal examination and laboratory assessments were also performed or reviewed. All RA patients who met the study criteria were offered enrollment. The criteria for inclusion in the study required that patients meet the American College of Rheumatology/European League Against Rheumatism 2010 classification criteria for RA (Aletaha et al., 2010), including seropositivity for rheumatoid factor and/or anti-citrullinated protein antibodies, and that all subjects be age 18 years or older. New-onset RA was defined as disease duration of a minimum of 6 weeks and up to 6 months since diagnosis, and absence of any treatment with disease-modifying anti-rheumatic drugs, biologic therapy or steroids (ever). The exclusion criteria applied to all groups were as follows: recent (<3 months prior) use of any antibiotic therapy, current extreme diet (e.g., parenteral nutrition or macrobiotic diet), known inflammatory bowel disease, known history of malignancy, current consumption of probiotics, any gastrointestinal tract surgery leaving permanent residua (e.g., gastrectomy, bariatric surgery, colectomy), or significant liver, renal, or peptic ulcer disease. This study was approved by the Institutional Review Board of New York University School of Medicine protocols #09-0658 and as previously published (Scher et al., 2013). All new onset rheumatoid arthritis (NORA) patients were recruited using established protocols from a previously described study (Scher et al., 2013). Patients received oral MTX at standard of care doses as prescribed by their treating rheumatologists. Stool samples were collected at baseline and 1 month after MTX initiation and metadata were obtained at baseline and 4 months after therapy initiation. Clinical and demographic data was de-identified and recorded in RedCap by the designated study personnel. Clinical responder status (MTX-R) was defined a priori as any NORA patient whose DAS28 score was greater than 2 at baseline and improved by at least 1.8 by month 4 post-treatment. DNA was extracted from human fecal samples (n=23 patients, 46 stool samples) as previously described (Scher et al., 2013), using the MoBio Powersoil DNA extraction kit, based on cell membrane disruption by high-speed shaking in the presence of beads. The V4 hypervariable region of bacterial 16S ribosomal RNA (rRNA) was performed using a MiSeq […] platform (150-bp read length, paired-end protocol) at the New York University Genome Technology Center as previously described (Manasson et al., 2018). For each sample, fastq files are available in NCBI's Sequence Read Archive (SRA), accession number PRJNA656577.
Stool samples from 17 RA patients underwent DNA extraction using ZymoBIOMICS 96 MagBead DNA Kit (Cat #D4302) as per the manufacturer's protocol. Sequencing libraries were generated using the Nextera DNA Flex Library Kit (Illumina, #20018705) and Nextera Compatible Unique Dual Indices—Set A primers (Illumina, #20027213). Library concentrations were normalized using PicoGreen (Quant-It dsDNA; Life Technologies) and pooled for sequencing on the NovaSeq using S1 or S2 platform at the Chan Zuckerberg Biohub.
Reads that were not already demultiplexed were demultiplexed using QIIME (Caporaso et al., 2010) v1.9.1 (split_libraries_fastq.py). For all reads except NYU RA patient samples, QIIME2 (Bolyen et al., 2019)(v 2020.2) was used to trim reads, denoise the data, and create a feature table using the following commands: qiime cutadapt trim-paired, qiime dada2 denoise-paired, qiime feature-table filter-samples. […]

Turning to `CN(Cc1cnc2nc(N)nc(N)c2n1)c1ccc(C(=O)N[C@@H](CCC(=O)O)C(=O)O)cc1` [MTX, methotrexate], the “number of MTX responders (MTX-R)” value (23 RA patients, decrease in DAS28 of ≥1.8 and continued oral MTX without added DMARDs or biologics) was 8. Moreover, the “number of MTX non-responders (MTX-NR)” value (23 RA patients, same response definition) is recorded as 15. Besides, the “number of KOs with significant differences in abundance” value (MTX-NR, q<0.25, MaAsLin2) was 5. For the same compound, the “number of gene families with significant differences in abundance” value (MTX-NR, q<0.25, MaAsLin2) is 508. Also, the “number of gene families with significant shift” value (MTX-R, q<0.25, MaAsLin2) was 2. Also, the “change in Bacteroidetes over time in MTX-R relative to MTX-NR” value (baseline vs 1 month, Wilcoxon rank-sum) is on record as “significant decrease”. Besides, the “richness, community structure, abundance of bacterial phyla, genera, or ASVs, pre- vs. post MTX” value (entire cohort n=23, baseline vs 1 month, oral MTX standard of care) was “no significant differences”. Also, the “number of gene families differentially abundant over time” value runs as follows: (MaAsLin2 q-value<0.25) 96; (nominal p-value<0.05) 6,409. Besides, the “number of KEGG orthologs (KOs) differentially abundant” value (nominal p<0.05) stood at 334 and the “number of KEGG orthologs (KOs) differentially abundant” value (q<0.25) stood at 5.

The record behind these values is US20220160712A1, “METHODS OF TREATING RHEUMATOID ARTHRITIS AND FOR PREDICTING THE RESPONSE TO METHOTREXATE” (CHAN ZUCKERBERG BIOHUB, INC., priority 2020, published 2022).
